Read-outs that look alike come from different tables or passages of the source.
Tests used:
potassium currents = experiment: Potassium currents in CGN; format: cell-based, rat; settings: 10 μM MG
Source text: (§1) Potassium currents: Voltage-gated potassium channel currents were evoked using a previously reported protocol with modifications (Plant 2006). The whole voltage-gated potassium current, IK+, and the delayed rectifier current, IDR were isolated with two voltage protocols. First, IK+ was evoked by 250 ms test pulses to between −80 and 90 mV from −80 mV following a 250 ms pre-pulse to −140 mV. Then, the protocol was repeated using a −50 mV pre-pulse to inactivate IK+ and isolate IDR. The inactivating component of the current, IKA, was isolated by subtracting IDR from IK+ recorded in the same cells. The standing outward potassium leak current, IKso, and the inwardly rectifying potassium current, IKIR, were studied as previously reported with modifications (Plant 2002). Cells were held at −20 mV, and the membrane potential was ramped to −120 mV over a period of 100 ms before returning to −20 mV. Ramp hyperpolarizations were repeated every 20 seconds.

[1] = tested on: picrotoxin-induced seizures; experiment: Picrotoxin-induced seizures assessed by EEG; format: in vivo, mouse; settings: MG 200 mg/kg pre-treatment, picrotoxin 7 mg/kg
Protocol: FIGS. 37A-37D: Exogenous MG attenuates picrotoxin-induced seizures as assessed by EEG. B6 mice were pre-treated with vehicle or MG (200 mg/kg) prior to seizure induction with picrotoxin (7 mg/kg). […] P=0.036 by Mann-Whitney U test. […] P=0.028 by Mann-Whitney U test. […] P=0.036 by Mann-Whitney U test. […] P=0.014 by Mann-Whitney U test. […] P=0.028 by Mann-Whitney U test. FIG. 37D, Representative EEG recordings of a mouse during baseline period (prior to any injections), after acute saline and picrotoxin (7 mg/kg) injections, or after acute MG (200 mg/kg) and picrotoxin (7 mg/kg) injections. […] Seizures are associated with high muscle activity, as indicated by the electromyography (EMG) trace. […] EEG traces correspond to four differential recordings from each of four subdural electrodes (EEG1 and EEG2 (right cortical hemisphere), EEG3 and EEG4 (left cortical hemisphere)). EMG activity was recorded using two fine wires placed into the neck muscle. Calibration mark: 500 μV/mm and 1 second. Data are mean±SEM. n=4 vehicle, 5 MG (200 mg/kg). *P<0.05 versus vehicle-treated group as determined by Mann-Whitney U tests.
In order to validate these behavioral data, the inventors assessed seizure activity by EEG analysis of mice treated with 7 mg/kg picrotoxin. […] Thus, MG attenuates seizures induced by GABAA receptor blockade at both the behavioral and EEG level.

neuronal cell death = settings: literature (Di Loreto 2008; Di Loreto 2004; Li 2010); cited from earlier work
GABAB receptors = target: T1, GABAB receptors (Rattus norvegicus, UniProt Q9Z0U4); experiment: GABAB receptor activation (IKIR) in CGN; format: cell-based; settings: 10 μM MG in the presence of SR
T1 construct: endogenous in cells; host or cells: primary rat cerebellar granule neurons
Source text: as §1

mice [2] = experiment: Observation of sedation or gross deficits in treated mice; settings: MG 300 mg/kg, WT B6 mice, data not shown
[3] = tested on: GABAA receptors in macropatches excised from CGN; experiment: Macropatch recording from CGN; format: cell-based, rat
Protocol: Macropatch recording: Macropatch recording was performed with 1.5-2 MΩ electrodes filled with bath solution. The inside of excised patches was perfused with electrode solution containing the indicated reagents. SR was added to the electrode where indicated.

[4] = tested on: depression-like behavior in mice; experiment: Tail suspension test (TST); format: in vivo, mouse; settings: MG 50 mg/kg i.p., acute, 10 min before test, B6 mice
Protocol: Mice were suspended by their tails using adhesive tape attached to a bar elevated approximately 46 cm above a table. The apparatus was illuminated to approximately 1,000 lux. Mice were tested individually, and time spent immobile was scored manually for six minutes. For MG studies, mice were treated with vehicle (0.9% saline) or crude MG (Sigma-Aldrich, 50 mg/kg) by i.p. injection ten minutes before the test. Behavior was scored for five minutes.

[5] = HPLC measurement of MG concentration in whole brain after i.p. MG; format: in vivo, mouse; settings: for concentration at 10 min: intraperitoneal, read-out: Estimated MG concentration; for concentration at 10 min / MG concentration (nmol/g tissue): brain; for MG concentration (nmol/g tissue): 10 min post-injection
Protocol: MG concentration was measured by HPLC as previously described with modifications (Dhar 2009). Tissue was homogenized in 50 mM sodium phosphate buffer (pH 6.6) and 0.8N perchloric acid. It was then incubated on ice for 10 minutes and centrifuged. The supernatant was filtered, and MG was derivatized with 10 mM o-phenylenediamine to form 2-methylquinoxaline (2-MQ). 5-methylquinoxaline (5-MQ, 15 μM) was spiked into each sample as an internal standard. 2-MQ was quantified using an HP 1100 HPLC system (Agilent) with a Nova-Pak C18 column (Waters Corporation). Column effluent was monitored at 315 nm. 2-MQ concentration was determined by comparison to 2-MQ standards of known mass. Quantification of 2-MQ was corrected for losses by comparison with 5-MQ. MG concentration was calculated as 2-MQ/tissue weight. Treatment: Unless otherwise noted, crude MG was used for all behavioral experiments. MG was obtained from Sigma-Aldrich, filter-sterilized (0.22 μm filter, Millipore), diluted in vehicle (0.9% NaCl), and adjusted to pH 7.4. Mice were injected i.p. with 10 ml/kg MG or vehicle. HPLC: Ten minutes post-injection, mice were sacrificed, and brains were rapidly dissected and flash-frozen on dry ice. MG concentration was measured as described above.

mice [6] = experiment: Hypothermia (rectal temperature); format: in vivo, mouse; settings: 300 mg/kg i.p., B6 mice
Protocol: Hypothermia: Thirty minutes post-injection, rectal temperature was measured with a digital thermometer.

T1 sequence (Q9Z0U4 17-960 limits assumed): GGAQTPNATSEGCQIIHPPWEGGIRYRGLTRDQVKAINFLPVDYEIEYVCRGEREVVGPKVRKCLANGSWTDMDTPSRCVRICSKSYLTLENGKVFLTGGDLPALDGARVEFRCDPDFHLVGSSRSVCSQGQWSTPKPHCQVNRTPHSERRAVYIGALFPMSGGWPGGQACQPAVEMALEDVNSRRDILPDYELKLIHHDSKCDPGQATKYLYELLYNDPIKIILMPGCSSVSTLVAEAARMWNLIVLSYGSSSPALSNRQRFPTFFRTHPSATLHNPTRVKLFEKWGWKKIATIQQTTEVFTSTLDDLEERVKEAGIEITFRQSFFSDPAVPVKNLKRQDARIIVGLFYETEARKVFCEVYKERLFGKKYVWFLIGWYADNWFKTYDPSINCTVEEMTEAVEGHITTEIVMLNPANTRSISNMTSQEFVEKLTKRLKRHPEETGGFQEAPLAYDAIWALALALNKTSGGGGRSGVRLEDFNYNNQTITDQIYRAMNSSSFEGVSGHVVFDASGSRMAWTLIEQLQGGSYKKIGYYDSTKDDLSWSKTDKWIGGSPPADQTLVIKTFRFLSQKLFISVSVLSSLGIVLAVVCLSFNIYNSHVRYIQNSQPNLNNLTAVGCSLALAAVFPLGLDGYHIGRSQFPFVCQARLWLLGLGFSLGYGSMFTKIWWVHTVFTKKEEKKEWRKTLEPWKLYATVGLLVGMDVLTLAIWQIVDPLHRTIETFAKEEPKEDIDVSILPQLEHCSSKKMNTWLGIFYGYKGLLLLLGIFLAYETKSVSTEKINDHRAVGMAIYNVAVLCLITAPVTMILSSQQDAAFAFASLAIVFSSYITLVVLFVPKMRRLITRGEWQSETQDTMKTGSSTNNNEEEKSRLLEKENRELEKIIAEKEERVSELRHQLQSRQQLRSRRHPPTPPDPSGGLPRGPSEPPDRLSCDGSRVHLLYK
T1 sequence (O88871 41-940 partner): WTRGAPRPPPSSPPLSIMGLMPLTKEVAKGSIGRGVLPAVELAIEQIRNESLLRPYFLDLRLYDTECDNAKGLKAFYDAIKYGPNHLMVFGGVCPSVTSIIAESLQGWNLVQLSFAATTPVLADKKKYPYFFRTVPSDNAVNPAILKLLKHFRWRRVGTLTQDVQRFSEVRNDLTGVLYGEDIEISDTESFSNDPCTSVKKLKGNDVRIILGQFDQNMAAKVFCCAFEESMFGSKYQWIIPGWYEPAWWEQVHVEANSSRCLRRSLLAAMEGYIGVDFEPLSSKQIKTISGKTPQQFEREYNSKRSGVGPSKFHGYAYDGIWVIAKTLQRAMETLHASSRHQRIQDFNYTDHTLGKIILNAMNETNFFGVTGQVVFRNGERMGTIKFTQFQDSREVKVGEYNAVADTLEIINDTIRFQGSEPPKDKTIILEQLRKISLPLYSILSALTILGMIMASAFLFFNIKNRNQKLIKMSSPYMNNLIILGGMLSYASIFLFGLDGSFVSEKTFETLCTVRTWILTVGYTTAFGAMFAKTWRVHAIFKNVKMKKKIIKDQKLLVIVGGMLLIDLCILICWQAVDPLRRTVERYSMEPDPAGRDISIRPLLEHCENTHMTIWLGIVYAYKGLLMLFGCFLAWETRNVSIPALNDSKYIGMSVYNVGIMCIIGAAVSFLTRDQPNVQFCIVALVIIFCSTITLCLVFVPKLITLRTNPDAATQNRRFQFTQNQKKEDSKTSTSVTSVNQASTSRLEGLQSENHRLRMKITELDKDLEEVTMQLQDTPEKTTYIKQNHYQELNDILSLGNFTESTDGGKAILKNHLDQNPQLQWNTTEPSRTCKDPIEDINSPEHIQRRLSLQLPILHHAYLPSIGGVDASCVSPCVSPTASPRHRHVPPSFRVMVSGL

Structure (SMILES): CC(=O)C=O [MG, methylglyoxal]
- effect on potassium currents (potassium currents): did not affect
- duration of EEG-confirmed seizures [1]: reduced seizure duration
- latency to first EEG-confirmed seizure [1]: delayed seizure onset
- number of EEG-confirmed seizures [1]: reduced the number of seizures
- MG concentrations that induce neuronal cell death in vitro (neuronal cell death): 100-1,000 μM
- activation of GABAB receptors (GABAB receptors): did not activate GABAB receptors
- sedation (mice [2]): caused sedation
- latency of inward current after application to the intracellular face ([3]; 10 μM MG): approximately 40 seconds
- current on application to the intracellular face of macropatches ([3]; 10 μM, SR 10 μM at the extracellular face (pipette)): elicited an inward current
- duration of immobility in the TST [4]: did not affect the duration of immobility
- concentration at 10 min ([5]; B6, mouse, MG 50 mg/kg i.p. (anxiolytic dose)): 5.94 µM
- concentration at 10 min ([5]; B6, mouse, MG 100 mg/kg i.p.): 6.54 µM
- concentration at 10 min ([5]; B6, mouse, MG 300 mg/kg i.p.): 8.26 µM
- expected increase of the concentration of MG in the brain ([5]; MG 50 mg/kg): approximately 16%
- MG concentration (nmol/g tissue) ([5]; MG 50 mg/kg i.p.): 5.66 ± 0.36 nmol/g tissue
- MG concentration (nmol/g tissue) ([5]; MG 100 mg/kg i.p.): 6.23 ± 0.26 nmol/g tissue
- expected increase of the concentration of MG in the brain ([5]; MG 200 mg/kg): ~43%
- MG concentration (nmol/g tissue) ([5]; MG 300 mg/kg i.p.): 7.87 ± 0.56 nmol/g tissue
- concentration at 10 min ([5]; mouse, MG 50 mg/kg i.p. (anxiolytic dose)): ~6 µM
- hypothermia (mice [6]): hypothermia
